Data set [1] can be described thus: Cohort of patients starting azathioprine therapy: clinical response, side-effects and association with XDH, MOCOS and AOX SNP genotype. The following applies: cohort of 168 patients starting azathioprine therapy.
For data set [2] the following is noted: remaining non-/partial responder patients.

Each structure is given as a SMILES string.

As for `Cn1cnc([N+](=O)[O-])c1Sc1ncnc2nc[nH]c12` [azathioprine, 6-(1-methyl-4-nitro-5-imidazolylthio) purine], in data set [1], the partial responders is listed as 7 patients and the “patients deemed to have no response to azathioprine” value came out at 35 patients. Further, the “difference in TGN levels between wild-type and heterozygous for the AOX SNP” value in data set [2] is given as “no significant difference”.

The record behind these values is patent publication US8168384B2, “Non-thiopurine methyltransferase related effects in 6-mercaptopurine therapy” (Guy's and St. Thomas' NHS Foundation Trust, priority 2007, dated 2012).
